How the values were obtained:
[1] = test system: Lactate Adapted cells (DG44 CHO); assay: Lactate Adapted cells continuously passaged in medium containing 0 to 40 mM lactate; format: cell-based, Chinese Hamster
Experimental: Unless otherwise noted, the experiments described herein were conducted with a dihydrofolate reductase deficient (DHFR^−) Chinese Hamster Ovary cell line, DG44 CHO (Invitrogen, Carlsbad, Calif.). Prior to experimentation, the cells were transfected with a pOPTI-Vec TOPO plasmid vector containing the gene for a recombinant monoclonal ScFv-Fc1 protein fragment. Transfected cells were grown in selective OptiCHO medium (Invitrogen, Carlsbad, Calif.) and the recombinant gene copy number was further amplified by supplementing the medium with 250 nM methotrexate. The amount of recombinant antibody fragment expressed was less than 10 mg/L and not subsequently measured. This cell line was used to test the feasibility of the novel approach in terms of cell growth, death, and metabolism. Cells were frozen down and hereafter referred to as “Native Control” cells. […]
Cell concentration and viability was measured by the trypan blue exclusion method using a ViCell analyzer (Beckman Coulter, Fullerton, Calif.). […] Osmolality was measured by freezing point depression on a Model 3250 Osmometer (Advanced Instruments, Norwood, Mass.) […]
Metabolic flux was calculated as specific nutrient consumption rate or specific metabolite production rate (qp) using Equations 5 and 6, where P is nutrient such as glucose or glutamine or metabolite such as lactic acid or ammonium) concentration: […]

[2] = test system: DG44 CHO (Native Control cells); assay: Native control cells grown in various levels of Na-lactate and NaCl (shaker flasks); format: cell-based, Chinese Hamster
Experimental: Unless otherwise noted, the experiments described herein were conducted with a dihydrofolate reductase deficient (DHFR^−) Chinese Hamster Ovary cell line, DG44 CHO (Invitrogen, Carlsbad, Calif.). Prior to experimentation, the cells were transfected with a pOPTI-Vec TOPO plasmid vector containing the gene for a recombinant monoclonal ScFv-Fc1 protein fragment. Transfected cells were grown in selective OptiCHO medium (Invitrogen, Carlsbad, Calif.) and the recombinant gene copy number was further amplified by supplementing the medium with 250 nM methotrexate. The amount of recombinant antibody fragment expressed was less than 10 mg/L and not subsequently measured. This cell line was used to test the feasibility of the novel approach in terms of cell growth, death, and metabolism. Cells were frozen down and hereafter referred to as “Native Control” cells. All subsequent experiments were performed without methotrexate.
Cell concentration and viability was measured by the trypan blue exclusion method using a ViCell analyzer (Beckman Coulter, Fullerton, Calif.). Off-line measurements were taken with a Bioprofile 400 (Nova Biomedical, Waltham, Mass.) for glucose, glutamine, lactate, carbon dioxide, oxygen, ammonium concentration and pH levels. Osmolality was measured by freezing point depression on a Model 3250 Osmometer (Advanced Instruments, Norwood, Mass.)
In the first set of experiments, illustrated in FIGS. 1-6, cultures were grown at 30 ml working volume in 125 ml shaker flasks (Corning, Lowell, Mass.) placed in an incubator at 37° C., 135 rpm, and 8% CO2. Continuous passages were performed every 3 to 4 days in duplicate shaker flasks inoculated at a seeding density of 1.0×10^6 cell/ml. After the cells were adapted to the high lactate concentration, longer-duration batch cultures were performed in triplicate shaker flasks for 12 days starting at a seeding density of 0.3×10^6 cells/ml. A sodium (D/L)-lactate stock solution (Sigma, Lowell, Mass.) was used for lactate supplementation. All reported lactate values are for the physiologically relevant L-Lactate isomer.
Specific rates were determined on a time interval bases by measuring daily viable and total cell density (VCD or TCD) and metabolite concentrations. Specific net growth rate (μN), was calculated as change in VCD over a time interval t1 to t2 using Equation 1: […]
Metabolic flux was calculated as specific nutrient consumption rate or specific metabolite production rate (qp) using Equations 5 and 6, where P is nutrient such as glucose or glutamine or metabolite such as lactic acid or ammonium) concentration:
Native control cells were grown in various levels of Na-lactate and NaCl to evaluate the impact each component had on growth and viability. Media compositions are discussed in Table 1.

SMILES | lactic acid production ([1]; cultures inoculated between 35 to 40 mM lactate (FIG. 3)) | initial lactate concentration at zero net flux of lactic acid production ([1]; predicted from FIG. 3) | specific lactic acid production ([2]; 27 mM lactate (FIG. 1C)) | specific lactic acid production ([2]; 40 mM lactate (FIG. 1C)) | specific total growth and death rate ([2]; non-adapted cells, Na-lactate compared with NaCl (FIG. 1B)) | viable cell density (VCD) ([2]; non-adapted cells, increasing lactate levels (FIG. 1A)) | specific lactic acid production ([2]; NaCl supplementation (FIG. 1C))
CC(O)C(=O)[O-].[Na+] (stereo not shown) [Na-lactate, sodium lactate] | substantially reduced | above 40 mM | dramatic drop | clear shift from production to consumption | impacted specific total growth and death rate the most | clear reduction | –
[Cl-].[Na+] [NaCl, sodium chloride, reference compound] | – | – | – | – | – | – | No such effect
